Results reported in patent US20080248503A1, “Methods of Screening Compounds to Predict Toxicity and Residual Proliferative and Differentiation Capacity of the Lympho-Hematopoietic System” (priority 2005, published 2008).
Where two headings read alike, the source gives them in different places.

How the values were obtained:
[1] = system: mouse hematopoietic lineages; assay type: cell-based
Procedure: (§1) To calculate the quantities of reagents required: • 1.
(§2) (See (iv) Adhesive Plate Covering Film above). • 3. […] Repeat this procedure a total of 4 times. Mixing is very important. • 4.
(§3) Luminescence is measured in relative luminescence units or RLU.

mouse T-CFC = test: HALO 7-population hemotoxicology, mouse T-CFC; assay type: cell-based
Procedure: as §1, §2, §3

human HPP-SP = system: human HPP-SP
Description: (§4) Depending on the type and size of the HALO kit used, all of the culture components required, with the exception of the cells, are included. A typical HALO kit contains the 3 component mixes required to culture cells: • 1. Serum component mix (Mix 1): contains fetal bovine serum (FBS), bovine serum albumin (BSA), transferring and insulin. • 2. Methyl cellulose mix (Mix 2): contains methylcellulose and alph-thioglycerol. • 3. Growth factor mix (Mix 3): contains the type and number of growth factors depending on the cell population being stimulated. • 4. Target cells as prepared in step 1 above: different cell types are available from peripheral blood, bone marrow, or umbilical cord blood (humans) procured from human, non-human primate, dog, rat, or mouse. • Methyl cellulose provided: Methyl cellulose is a viscous, water soluble, semi-solid medium for immobilizing cells. The amount of methyl cellulose provided is for the number of 96-well plates determined by the kit. However, if dispensed carefully, there is sufficient methyl cellulose so that several smaller experiments can be performed using the plate(s) provided. • Dispensing individual component mixes and reagents: A repeater pipette may be used which uses a positive-displacement syringe is used to dispense the methyl cellulose mix. • Dispensing the master mix: Once all the component mixes have been added together, use a repeater pipette to dispense the master mix into individual wells. Using normal syringes with needles may result in inaccurate dispensing and greater variation between replicate wells. • Number of replicates performed: At least 4 replicates per culture point are preferred. Plate configuration: The configuration of the 96-well plate for an experiment is arbitrary. However, the number of replicates and the way in which the reagents required to measure luminescence are added, will determine the plate configuration. For example, if performing 4 or 8 replicates per culture point, we recommend configuring the plate in columns, that is, A1 to DI and EI to HI etc. for quadruplicate cultures and A1 to HI, A2 to 112 etc. for 8-replicate cultures are possible. If performing 6 or 12 replicates, we recommend configuring the plate, in rows, that is, A1-A6 and A7 to A12 for 6 replicates and A1-A12, BL to—813 for 12 replicates are possible. If performing column replicates, addition of the ATP releasing reagent and ATP luminescence-monitoring reagent can be performed using an 8-channel pipette from left to right across the plate. If performing row replicates, an 8- or 12-channel pipette can be used to dispense the reagents from the top to the bottom of the plate. To calculate the quantities of reagents required: • 1. Determine the-number of sample categories required for testing and the number of replicates for each sample. • 2. Multiply the number of sample categories by the number of replicates to obtain the number of wells to be used.
(§5) Before adding the target cells, ensure that a single cell suspension has been prepared. • 6. Mix the contents of the tube vigorously to obtain a homogenous master mix. • 7. To ensure that as little master mix as possible remains on the walls of the tube perform a quick spin in a centrifuge to 500 rpm and then let the centrifuge spin down. […] Dispense 100 μl of the reagent master mix into each of the replicate wells. This can be performed with a syringe and needle, but a repeater pipette is recommended for ease of use, reproducibility and to reduce variation. • 9. Transfer the culture plate to a 37 Celsius, fully humidified incubator with an atmosphere of 5% CO2. If possible, use an incubator gassed with 95% nitrogen in order to reduce the atmospheric oxygen concentration of 5% O2 since this helps increase the plating efficiency. • 10.
(§6) The addition of ATP releasing reagent and ATP luminescence-monitoring reagent is performed is the same manner as that for ATP. • 1.

mouse HPP-SP = system: mouse HPP-SP
Description: as §4, §5, §6

mouse B-CFC = test: HALO 7-population hemotoxicology, mouse B-CFC; assay type: cell-based
Procedure: as §1, §2, §3

[2] = system: lymphopoietic cell populations
Description: as §4, §5, §6

mouse CFC-GEMM = system: mouse CFC-GEMM
Description: as §4, §5, §6

human CFC-GEMM = system: human CFC-GEMM
Description: as §4, §5, §6

[3] = system: human hematopoietic lineages; test: HALO 7-population hemotoxicology, human hematopoietic lineages; assay type: cell-based
Procedure: as §1, §2, §3

[4] = system: progenitor cell populations; test: HALO 7-population hemotoxicology, progenitor cell populations (hematopoietic lineages); assay type: cell-based
Procedure: as §1, §2, §3

CFC-GEMM stem cells = test: HALO 7-population hemotoxicology, CFC-GEMM; assay type: cell-based; details: species not stated
Procedure: as §1, §2, §3

[5] = system: primitive and mature stem cell populations; test: HALO 7-population hemotoxicology, primitive and mature stem cell populations; assay type: cell-based; details: FIG. 17A
Procedure: as §1, §2, §3

HPP-SP stem cells = test: HALO 7-population hemotoxicology, HPP-SP; assay type: cell-based; details: species not stated
Procedure: as §1, §2, §3

BFU-E = test: HALO 7-population hemotoxicology, BFU-E (erythropoietic lineage); assay type: cell-based
Procedure: as §1, §2, §3

[6] = system: human PBMNCs cultured under BFU-E-stimulating conditions; test: HALO cell proliferation (luminescence) of PBMNCs under BFU-E-stimulating conditions; assay type: cell-based; details: days 3 and 7
Procedure: Fresh human PBMNCs were cultured under BFU-E-stimulating conditions, together with 3 concentrations of DOX, namely 1 ng/ml (low), 10 ng/ml (medium) and 100 ng/ml (high) as per a typical HALO test procedure. Replicate plates were used so that the effects of DOX could be examined at 2 time points, namely days 3 and 7. At each time point, using the APOGLOW™ detection kit (Cambrex BioScience), ATP releasing reagent and ATP luminescence-monitoring reagent were added and the luminescence read immediately. A second luminescence reading was taken when the nadir ATP value occurred. At this point an ADP converting reagent (ADP-CR) was then added, which converts ADP to ATP and the luminescence measured when the conversion reached a plateau. From these 3 measurements ADP-.ATP ratio was determined. FIG. 15A and 15B show the mean RLU values for each of the DOX concentrations measured at the 2 time points. […] On day 3, the increase in ADP:ATP ratio is due to apoptosis of cells with low proliferative capacity.

[7] = system: human PBMNCs cultured under BFU-E-stimulating conditions; test: HALO apoptosis measurement (ADP:ATP ratio) of PBMNCs under BFU-E-stimulating conditions; assay type: cell-based
Procedure: Fresh human PBMNCs were cultured under BFU-E-stimulating conditions, together with 3 concentrations of DOX, namely 1 ng/ml (low), 10 ng/ml (medium) and 100 ng/ml (high) as per a typical HALO test procedure. Replicate plates were used so that the effects of DOX could be examined at 2 time points, namely days 3 and 7. At each time point, using the APOGLOW™ detection kit (Cambrex BioScience), ATP releasing reagent and ATP luminescence-monitoring reagent were added and the luminescence read immediately. A second luminescence reading was taken when the nadir ATP value occurred. At this point an ADP converting reagent (ADP-CR) was then added, which converts ADP to ATP and the luminescence measured when the conversion reached a plateau. From these 3 measurements ADP-.ATP ratio was determined. FIG. 15A and 15B show the mean RLU values for each of the DOX concentrations measured at the 2 time points. […]
Cell proliferation and apoptosis can actually be performed in a single read by performing HALO as described above, but then instead of measuring only ATP, adenosine diphosphate (ADP) is also measured, as shown in FIGS. 15 and 16. […]
In the HALO methods that form the basis of the kits of the present invention, ATP is released from the cells using ATP releasing reagent and a 15 min incubation. Thereafter, the ATP luminescence-monitoring reagent is added and the plates read immediately. […]

**Q.** For CN(C)C=O [N,N-dimethylformamide], which “effect on mouse hematopoietic lineages” value [1] is on record?
**A.** The value was “effected”.

**Q.** What about the “effect on mouse T-CFC” value (mouse T-CFC) of the same compound?
**A.** Its value is “stimulation”.

**Q.** And the “effect on human HPP-SP” value (human HPP-SP; human)?
**A.** Its value is “effected”.

**Q.** And the “effect on mouse HPP-SP” value (mouse HPP-SP; mouse)?
**A.** The value was “stimulated”.

**Q.** With Nc1ccc(N)cc1 [p-phenelenediamine] as the compound, how does the “effect on mouse T-CFC” value (mouse T-CFC) read?
**A.** The value was “decrease”.

**Q.** And the “effect on mouse HPP-SP” value (mouse HPP-SP; mouse)?
**A.** Its value is “decrease”.

**Q.** What about the “effect on mouse B-CFC” value (mouse B-CFC) of the same compound?
**A.** Its value is “decrease”.

**Q.** Which “effect on mouse hematopoietic lineages” value [1] does the source give for [Cl][Cd][Cl] [cadmium chloride] here?
**A.** Its value is “decrease”.

**Q.** And the “effect on human HPP-SP” value (human HPP-SP; human)?
**A.** The value was “decrease”.

**Q.** And the “effect on mouse HPP-SP” value (mouse HPP-SP; mouse)?
**A.** The value was “decrease”.

**Q.** What about the “effect on lymphopoietic cells / lymphopoietic lineages” value ([2]; T-CFC & B-CFC) of the same compound?
**A.** Its value is “decrease”.

**Q.** What about the “effect on mouse CFC-GEMM” value (mouse CFC-GEMM; mouse) of the same compound?
**A.** Its value is “no effect”.

**Q.** And the “effect on human CFC-GEMM” value (human CFC-GEMM; human)?
**A.** Its value is “decrease”.

**Q.** What about the “effect on human hematopoietic lineages” value [3] of the same compound?
**A.** The value was “decrease”.

**Q.** With c1ccccc1 [benzene] as the compound, how does the “effect on progenitor cells / hematopoietic lineages” value [4] read?
**A.** The value was “hematopoietic suppression”.

**Q.** And the “effect on CFC-GEMM stem cells” value (CFC-GEMM stem cells)?
**A.** The value was “acts at the CFC-GEMM level”.

**Q.** Which “effect on stem cells” value [5] does the source give for CCn1cc(C(=O)O)c(=O)c2ccc(C)nc21 [naladixic acid] here?
**A.** Its value is “No demonstrable effect”.

**Q.** What about the “effect on lymphopoietic cells / lymphopoietic lineages” value ([2]; T-CFC & B-CFC) of the same compound?
**A.** Its value is “No demonstrable effect”.

**Q.** What about the “effect on progenitor cells / hematopoietic lineages” value [4] of the same compound?
**A.** Its value is “No demonstrable effect”.

**Q.** O=C(N[C@H](CO)[C@H](O)c1ccc([N+](=O)[O-])cc1)C(Cl)Cl [chloramphenicol] was tested. Which “effect on HPP-SP stem cells” value (HPP-SP stem cells) did it give?
**A.** Its value is “Stimulation”.

**Q.** What about the “effect on lymphopoietic cells / lymphopoietic lineages” value ([2]; T-CFC & B-CFC) of the same compound?
**A.** Its value is “stimulation”.

**Q.** And the “effect on erythroid elements” value (BFU-E; erythropoietic lineage)?
**A.** The value was “decrease”.

**Q.** What about the “effect on BFU-E” value (BFU-E; species not stated) of the same compound?
**A.** The value was “specifically inhibited”.

**Q.** And the “effect on CFC-GEMM stem cells” value (CFC-GEMM stem cells)?
**A.** The value was “no effect”.

**Q.** With [Na+].[Na+].[O]=[Cr](=[O])([O-])[O][Cr](=[O])(=[O])[O-] [sodium dichromate] as the compound, how does the “effect on human HPP-SP” value (human HPP-SP) read?
**A.** Its value is “inhibited”.

**Q.** What about the “effect on mouse HPP-SP” value (mouse HPP-SP) of the same compound?
**A.** The value was “inhibited”.

**Q.** What about the “effect on lymphopoietic cells / lymphopoietic lineages” value [2] of the same compound?
**A.** Its value is “inhibition”.

**Q.** And the “effect on mouse CFC-GEMM” value (mouse CFC-GEMM)?
**A.** Its value is “inhibited”.

**Q.** And the “effect on human CFC-GEMM” value (human CFC-GEMM)?
**A.** The value was “inhibited”.

**Q.** What about the “effect on progenitor cells / hematopoietic lineages” value [4] of the same compound?
**A.** Its value is “inhibition”.

**Q.** With COc1cccc2c1C(=O)c1c(O)c3c(c(O)c1C2=O)C[C@@](O)(C(=O)CO)C[C@@H]3O[C@H]1C[C@H](N)[C@H](O)[C@H](C)O1 [DOX, doxorubicin] as the compound, how does the “effect on mean RLU (luminescence)” value ([6]; 1 ng/ml (low)) read?
**A.** Its value is “little or no effect”.

**Q.** And the “effect on mean RLU (luminescence)” value ([6]; 10 ng/ml (medium))?
**A.** The value was “decrease the luminescence”.

**Q.** And the “effect on mean RLU (luminescence)” value ([6]; 100 ng/ml (high))?
**A.** The value was “decrease the luminescence”.

**Q.** What about the “effect on ADP:ATP ratio” value ([7]; day 3) of the same compound?
**A.** Its value is “increase”.

**Q.** What about the “apoptosis of BFU-E and immediate progeny” value ([7]; day 7) of the same compound?
**A.** Its value is “induced into apoptosis”.
